These results are taken from patent publication US20100234419A1, “SUBSTITUTED 3-AMINOISOXAZOLOPYRIDINES AS KCNQ2/3 MODULATORS” (GRUNENTHAL GMBH, priority 2009, published 2010).

This assay addresses T1, KCNQ2/3 channels (Homo sapiens, UniProt O43525+O43526).
T1 construct: expressed in transfected cells; host or cells: CHO-K1 cells, kept under selection antibiotics
Description: Fluorescence assay using a voltage sensitive dye (fluorimetry). The format is cell-based. The note with it: for Emax at 10 µM: relative to retigabine = 100%, read-out: Fluorimetry % efficacy @ 10 μM (retigabine = 100%); for Emax at 10 µM / EC50: CHO-K1 cells expressing KCNQ2/3; for KCNQ2/3 stimulation at 10 μM: Table 4 comparison experiments; for activity towards the KCNQ2/3 receptor: nitrogen atom introduced into the phenyl ring of the benzoisoxazole structure. As to the method: […] CHO-K1 cells expressing KCNQ2/3 channels are cultivated adherently at 37° C., 5% CO2 and 95% humidity in cell culture bottles (e.g. 80 cm^2 TC flasks, Nunc) with DMEM-high glucose (Sigma Aldrich, D7777) including 10% FCS (PAN Biotech, e.g. 3302-P270521) or alternatively MEM Alpha Medium (1×, liquid, Invitrogen, #22571), 10% fetal calf serum (FCS) (Invitrogen, #10270-106, heat-inactivated) and the necessary selection antibiotics.
Before being sown out for the measurements, the cells are washed with a 1×DPBS buffer without Ca^2+/Mg^2+ (e.g. Invitrogen, #14190-094) and detached from the bottom of the culture vessel by means of Accutase (PAA Laboratories, #L11-007) (incubation with Accutase for 15 min at 37° C.). The cell count then present is determined using a CASY™ cell counter (TCC model, Scharfe System) in order subsequently to apply, depending on the density optimization for the individual cell line, 20,000-30,000 cells/well/100 μl of the described nutrient medium to 96-well measuring plates of the Corning™ CelIBIND™ type (Flat Clear Bottom Black Polystyrene Microplates, #3340). Incubation is then carried out for one hour at room temperature, without gassing or adjusting the humidity, followed by incubation for 24 hours at 37° C., 5% CO2 and 95% humidity.
The voltage-sensitive fluorescent dye from the Membrane Potential Assay Kit (Red™ Bulk format part R8123 for FLIPR, MDS Analytical Technologies™) is prepared by dissolving the contents of a vessel Membrane Potential Assay Kit Red Component A in 200 ml of extracellular buffer (ES buffer, 120 mM NaCl, 1 mM KCl, 10 mM HEPES, 2 mM CaCl2, 2 mM MgCl2, 10 mM glucose; pH 7.4). After removal of the nutrient medium, the cells are washed with 200 μl of ES buffer, then covered with a layer of 100 μl of the dye solution prepared above and incubated for 45 min at room temperature with the exclusion of light.
The fluorescence measurements are carried out with a BMG Labtech FLUOstar™ BMG Labtech NOVOstar™ or BMG Labtech POLARstar™ instrument (525 nm excitation, 560 nm emission, Bottom Read mode). After incubation of the dye, 50 μl of the test substances in the desired concentrations, or 50 μl of ES buffer for control purposes, are introduced into separate cavities of the measuring plate and incubated for 30 min at room temperature while being shielded from light. The fluorescence intensity of the dye is then measured for 5 min and the fluorescence value F1 of each well is thus determined at a given, constant time. […] of a 100 mM KCl solution (final concentration […]) are then added to each well. The change in fluorescence is subsequently measured until all the relevant measured values have been obtained (mainly 5-30 min). At a given time after KCl application, a fluorescence value F2 is determined, in this case at the time of the fluorescence peak.
For calculation, the fluorescence intensity F2 is compared with the fluorescence intensity F1, and the agonistic activity of the target compound on the potassium channel is determined therefrom. F2 and F1 are calculated as follows: […]
Calculations of EC50 values are carried out with the aid of ‘Prism v4.0’ software (GraphPad Software™).

For the compound `FC(F)(F)Sc1ccc(CNc2noc3ccnc(Cl)c23)cc1` [Exemplary compound 25, 4-chloro-N-(4-(trifluoromethylthio)benzyl)-isoxazolo[4,5-c]pyridin-3-amine], the Emax at 10 µM was 19%. The same measure, in the same setting: with `Cc1cc(C)cc(C(C)Nc2noc3nc(C(F)(F)F)ccc23)c1` (stereo not drawn) [Exemplary compound 18, N-(1-(3,5-dimethylphenyl)ethyl)-6-(trifluoromethyl)isoxazolo[5,4-b]-pyridin-3-amine] the figure was 43%. For orientation: EC50 means the midpoint of the concentration-response curve. The low end stands for greater potency, the high end for weaker potency. As for `FC(F)(F)Sc1ccc(CNc2noc3nc4ccccc4cc23)cc1` [Exemplary compound 24, N-(4-(trifluoromethylthio)benzyl)-isoxazolo[5,4-b]quinolin-3-amine], the Emax at 10 µM came out at 38% and a half-maximal response (EC50) required 0.411 µM. Consider `FC(F)(F)Sc1ccc(CNc2noc3nc(C(F)(F)F)ccc23)cc1` [Exemplary compound 19, N-(4-(trifluoromethylthio)benzyl)-6-trifluoromethyl-isoxazolo[5,4-b]pyridin-3-amine], for which the Emax at 10 µM came out at 41%.

Regarding `Cc1cc(C)cc(C(C)Nc2noc3c(C(F)(F)F)nccc23)c1` (stereo not drawn) [Exemplary compound 21, N-(1-(3,5-dimethyl-phenyl)ethyl)-7-trifluoromethyl-isoxazolo[5,4-c]pyridin-3-amine], the Emax at 10 µM stood at 39%.

With `Cc1cc(C)cc(C(C)Nc2noc3nc(C)ccc23)c1` (stereo not drawn) [Exemplary compound 22, N-(1-(3,5-dimethylphenyl)ethyl)-6-methyl-isoxazolo[5,4-b]pyridin-3-amine], the Emax at 10 µM worked out at 49% and the EC50 is 0.231 µM. Consider `FC(F)(F)Sc1ccc(CNc2noc3c(C(F)(F)F)nccc23)cc1` [Exemplary compound 23, N-(4-(trifluoromethylthio)benzyl)-7-trifluoromethyl-isoxazolo[5,4-c]pyridin-3-amine], for which the Emax at 10 µM was determined as 27%.

For `CC(Nc1noc2ncccc12)c1ccc(C(F)(F)F)cc1` (stereo not drawn) [Exemplary compound 1, N-(1-(4-(trifluoromethyl)phenyl)ethyl)-isoxazolo[5,4-b]pyridin-3-amine], the Emax at 10 µM was 43%. Take `Cc1cc(C)cc(CNc2noc3ncccc23)c1` [Exemplary compound 3, N-(3,5-dimethyl-benzyl)isoxazolo[5,4-b]pyridin-3-amine]: the Emax at 10 µM is 34%. Turning to `FC(F)(F)Sc1ccc(CNc2noc3ccccc23)cc1` [E1, reference compound], the “KCNQ2/3 stimulation at 10 μM” value came out at 75%. As for `Cc1ccc2c(NCc3ccc(SC(F)(F)F)cc3)noc2n1` [Exemplary compound 20, 6-methyl-N-(4-(trifluoromethylthio)benzyl)-isoxazolo[5,4-b]pyridin-3-amine], the Emax at 10 µM was determined as 49%. Turning to `FC(F)(F)Sc1ccc(CNc2noc3ccncc23)cc1` [Exemplary compound 12, N-(4-(trifluoromethylthio)benzyl)-isoxazolo[4,5-c]pyridin-3-amine], the “KCNQ2/3 stimulation at 10 μM” value is recorded as 39%, the Emax at 10 µM worked out at 39% and the “activity towards the KCNQ2/3 receptor” value is “still present”.

Regarding `Cc1cc(C)cc(C(C)Nc2noc3cnccc23)c1` (stereo not drawn) [Exemplary compound 15, N-(1-(3,5-dimethyl-phenyl)ethyl)-isoxazolo[5,4-c]pyridin-3-amine], the Emax at 10 µM came to 73%.

With `CC(Nc1noc2cnccc12)c1ccc(C(F)(F)F)cc1` (stereo not drawn) [Exemplary compound 14, N-(1-(4-(trifluoromethyl)phenyl)-ethyl)isoxazolo[5,4-c]pyridin-3-amine], the Emax at 10 µM was determined as 78%. Still for that read-out and setting: with `Cc1cc(C)cc(C(C)Nc2noc3cccnc23)c1` (stereo not drawn) [Exemplary compound 10, N-(1-(3,5-dimethyl-phenyl)ethyl)-isoxazolo[4,5-b]pyridin-3-amine] the figure was 27%. Take `CC(Nc1noc2ccncc12)c1ccc(SC(F)(F)F)cc1` (stereo not drawn) [Exemplary compound 17, N-(1-(4-(trifluoromethylthio)phenyl)ethyl)-isoxazolo[4,5-c]pyridin-3-amine]: the Emax at 10 µM worked out at 49% and the EC50 came to 0.899 µM. `FC(F)(F)Sc1ccc(CNc2noc3cccnc23)cc1` [Exemplary compound 9, N-(4-(trifluoromethylthio)benzyl)-isoxazolo[4,5-b]pyridin-3-amine]: the “KCNQ2/3 stimulation at 10 μM” value is recorded as 86%, the Emax at 10 µM was 86% and the “activity towards the KCNQ2/3 receptor” value is given as “still present”. Consider `CC(Nc1noc2cccnc12)c1ccc(SC(F)(F)F)cc1` (stereo not drawn) [Exemplary compound 13, N-(1-(4-(trifluoromethylthio)phenyl)-ethyl)isoxazolo[4,5-b]pyridin-3-amine], for which the Emax at 10 µM was found to be 50%. On to `Cc1cc(C)cc(C(C)Nc2noc3ccncc23)c1` (stereo not drawn) [Exemplary compound 16, N-(1-(3,5-dimethyl-phenyl)ethyl)-isoxazolo[4,5-c]pyridin-3-amine], for which the Emax at 10 µM was 15%. Take `FC(F)(F)Sc1ccc(CNc2noc3ncccc23)cc1` [Exemplary compound 2, N-(4-(Trifluoromethylthio)benzyl)-isoxazolo[5,4-b]pyridin-3-amine]: the “KCNQ2/3 stimulation at 10 μM” value is 77%, the Emax at 10 µM worked out at 77%, a half-maximal effect (EC50) was put at 1.69 µM and the “activity towards the KCNQ2/3 receptor” value is listed as “still present”. Consider `Cc1cc(C)cc(C(C)Nc2noc3ncccc23)c1` (stereo not drawn) [Exemplary compound 4, N-(1-(3,5-dimethyl-phenyl)ethyl)-isoxazolo[5,4-b]pyridin-3-amine], for which the Emax at 10 µM was found to be 65%. As for `FC(F)(F)Sc1ccc(CNc2noc3cnccc23)cc1` [Exemplary compound 6, N-(4-(trifluoromethylthio)benzyl)-isoxazolo[5,4-c]pyridin-3-amine], the “KCNQ2/3 stimulation at 10 μM” value is given as 65%, the Emax at 10 µM came to 65% and the “activity towards the KCNQ2/3 receptor” value is recorded as “still present”. With `Cc1cc(C)cc(CNc2noc3cnccc23)c1` [Exemplary compound 7, N-(3,5-dimethyl-benzyl)isoxazolo[5,4-c]pyridin-3-amine], the Emax at 10 µM was determined as 29%. Same read-out and setting: with `CC(Nc1noc2ncccc12)c1ccc(SC(F)(F)F)cc1` (stereo not drawn) [Exemplary compound 5, N-(1-(4-(trifluoromethylthio)phenyl)ethyl)-isoxazolo[5,4-b]pyridin-3-amine] the figure was 97%.
